Assay results: patent US20240277666A1, “Combination Treatments for Cancer Patients and Methods for Identifying Same” (Scandion Oncology A/S, priority 2021, published 2024)

Columns and labels:
[1] = molecular target: T1, UGT1A1 (Homo sapiens, UniProt P22309); assay: in vitro UGT1A1 inhibition assay; type: biochemical; details: read-out: IC50 towards UGT1A1
T1 sequence (P22309 26-533): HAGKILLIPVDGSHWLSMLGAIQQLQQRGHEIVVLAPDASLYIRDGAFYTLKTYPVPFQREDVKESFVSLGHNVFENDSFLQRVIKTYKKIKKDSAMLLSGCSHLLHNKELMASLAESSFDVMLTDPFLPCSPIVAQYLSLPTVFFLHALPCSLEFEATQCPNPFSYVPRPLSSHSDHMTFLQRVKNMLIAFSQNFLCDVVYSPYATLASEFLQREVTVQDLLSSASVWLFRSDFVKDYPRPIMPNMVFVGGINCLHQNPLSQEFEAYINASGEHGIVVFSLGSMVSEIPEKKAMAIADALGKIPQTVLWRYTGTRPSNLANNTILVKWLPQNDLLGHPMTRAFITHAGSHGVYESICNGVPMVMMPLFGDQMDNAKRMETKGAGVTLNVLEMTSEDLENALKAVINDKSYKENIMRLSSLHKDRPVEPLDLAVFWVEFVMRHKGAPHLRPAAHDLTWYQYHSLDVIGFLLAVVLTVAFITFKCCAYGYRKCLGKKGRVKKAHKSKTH
Excerpt: The term “UGT1A1 inhibitor” as used herein refers to a molecule which is capable of binding to the enzyme uridine diphosphate (UDP)-glycuronosyl transferase (UGT1A1) and decrease the enzymatic activity of UGT1A1. The UGT1A1 enzyme, primarily found in the liver, is responsible for the gluronidation of bilirubin, converting it from the toxic form of bilirubin (unconjugated bilirubin) to its nontoxic, water-soluble form (conjugated bilirubin). Whether or not a particular molecule is an UGT1A1 inhibitor can be determined by examining the molecule's IC50 in vitro in common UGT1A1 inhibition assays. […] In one embodiment, the IC50 is 5 μM or less, such as 4 μM or less, such as 3 μM or less, such as 2 μM or less, for example between 0.1 μM and 2.0 μM. […] In some embodiments, the UGT1A1 inhibitor of the present disclosure is a non-competitive UGT1A1 inhibitor. In some embodiments, the UGT1A1 inhibitor is a competitive UGT1A1 inhibitor. In one embodiment, the UGT1A1 inhibitor is also SRPK1 inhibitor and/or an ABCG2 inhibitor.

[2] = molecular target: T1, UGT1A1; assay: Clinical study of SCO-101 with FOLFIRI: serum bilirubin / bilirubin index as surrogate of UGT1A1 activity; type: in vivo; parameters: from tissue; host or cells: patients in vivo (enzyme primarily in the liver); details: for mean bilirubin index score (day 12 / day 7 bilirubin serum concentration): cohort 1 (150 mg SCO-101), cycle 1; for highest bilirubin index score / lowest bilirubin index score: cohort 1, cycle 1
Protocol: The term “bilirubin index” as used herein or “bilirubin index score” which are used interchangeably, refer to a patient's rate of bilirubin normalization subsequent to administration of an UGT1A1 inhibitor to the patient. Herein, the bilirubin index is determined subsequent to administration of an UGT1A1 inhibitor to the patient for a number of consecutive days, such as 1, 2, 3, 4, 5, or 6, preferably 6 days. In some embodiments, based on 6 consecutive days of administration with an UGT1A1 inhibitor, the bilirubin index can be determined as the bilirubin serum concentration (unconjugated or total bilirubin) on day 12 divided with the bilirubin serum concentration on day 7 and thus is an indicator of how much the patients' UGT1A1 activity has normalized following cessation of treatment with the UGT1A1 inhibitor, such as SCO-101, and can be determined using bilirubin as a surrogate marker. Based on 6 consecutive days of administration with an UGT1A1 inhibitor, the bilirubin index is determined as the bilirubin serum concentration (unconjugated or total bilirubin) on day 12 divided with the bilirubin serum concentration on day 7 and thus is an indicator of how much the patients' UGT1A1 activity has normalized following cessation of SCO-101 treatment, and can be determined using bilirubin as a surrogate marker. In some embodiments, the bilirubin index is determined by comparison on bilirubin serum concentrations obtained from other days than day 7 and day 12. The bilirubin index is also referred to herein as the CT2/CT1 ratio, wherein CT1 is the plasma concentration of unconjugated bilirubin in the patient at a time point T1, whereas CT2 is the plasma concentration of unconjugated bilirubin in the patient at a time point T2 which is after discontinuing administration of the UGT1A1 inhibitor.
Bilirubin: Blood sampling for analysis of bilirubin (total, unconjugated and conjugated) were withdrawn at Screening (up to 4 weeks prior start of treatment), day 5, day 7 and day 12 in the first treatment cycle.
UGT1A1 is the primary enzyme responsible for conjugation of bilirubin and metabolism of Irinotecan's active metabolite SN-38.

## O=C(Nc1cc(C(F)(F)F)cc(C(F)(F)F)c1)Nc1ccc(Br)cc1-c1nnn[nH]1 [SCO-101]
[1]
  IC50: 0.7 to 1.9 µM
[2]; cancer patients, SCO-101 daily days 1-6
  effect on unconjugated bilirubin serum concentration: specific and dose dependent increase
[2]; cancer patients, blood bilirubin after last SCO-101 treatment
  reversibility of UGT1A1 inhibition / bilirubin increase after discontinuation of SCO-101: completely reversible
[2]; cohort 1, cycle 1, day 12 / day 7
  bilirubin index of patients with RAS mutation: above 0.4
[2]; six RAS mutated patients
  mean bilirubin index score (day 12 / day 7 bilirubin serum concentration): 0.59
  highest bilirubin index score: 0.76
  lowest bilirubin index score: 0.25
[2]; six RAS wild type patients
  mean bilirubin index score (day 12 / day 7 bilirubin serum concentration): approximately 0.15
  highest bilirubin index score: 0.28
  lowest bilirubin index score: 0.04
